Results from PubChem BioAssay (NCI).
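Interpolation was linear, between the two tested concentrations surrounding the appropriate level; five concentrations were tested over 48 hours in 96-well plates. TGI denotes the concentration required for complete inhibition of growth.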

Legend:
Experiment in all cases: NCI tumour cell line growth inhibition, 48 h
COLO 205 colon = system: COLO 205 colon
A549 NSCLC = system: A549 NSCLC
TK-10 renal = system: TK-10 renal
SK-MEL-28 melanoma = system: SK-MEL-28 melanoma
HCT-15 colon = system: HCT-15 colon
SN12C renal = system: SN12C renal
SR leukemia = system: SR leukemia
SW-620 colon = system: SW-620 colon
KM12 colon = system: KM12 colon
KM20L2 colon = system: KM20L2 colon
786-0 renal = system: 786-0 renal
RXF 393 renal = system: RXF 393 renal
K-562 leukemia = system: K-562 leukemia
HT29 colon = system: HT29 colon
SK-MEL-5 melanoma = system: SK-MEL-5 melanoma
SK-MEL-2 melanoma = system: SK-MEL-2 melanoma
MALME-3M melanoma = system: MALME-3M melanoma
IGROV1 ovarian = system: IGROV1 ovarian
SF-539 CNS = system: SF-539 CNS
MOLT-4 leukemia = system: MOLT-4 leukemia
NCI-H522 lung = system: NCI-H522 lung
EKVX NSCLC = system: EKVX NSCLC
XF 498 CNS = system: XF 498 CNS
DMS 273 small cell lung = system: DMS 273 small cell lung
SF-295 CNS = system: SF-295 CNS
OVCAR-5 ovarian = system: OVCAR-5 ovarian
NCI-H23 lung = system: NCI-H23 lung
HOP-62 NSCLC = system: HOP-62 NSCLC
NCI-H460 lung = system: NCI-H460 lung
U251 CNS = system: U251 CNS
DLD-1 colon = system: DLD-1 colon
LOX IMVI melanoma = system: LOX IMVI melanoma
DMS 114 small cell lung = system: DMS 114 small cell lung
UO-31 renal = system: UO-31 renal
SF-268 CNS = system: SF-268 CNS
LXFL 529 NSCLC = system: LXFL 529 NSCLC
HCT-116 colon = system: HCT-116 colon
NCI-H226 lung = system: NCI-H226 lung
A498 renal = system: A498 renal
OVCAR-4 ovarian = system: OVCAR-4 ovarian
HOP-18 NSCLC = system: HOP-18 NSCLC
UACC-257 melanoma = system: UACC-257 melanoma
RPMI-8226 leukemia = system: RPMI-8226 leukemia
HCC-2998 colon = system: HCC-2998 colon
UACC-62 melanoma = system: UACC-62 melanoma
SNB-78 CNS = system: SNB-78 CNS
SNB-19 CNS = system: SNB-19 CNS
OVCAR-3 ovarian = system: OVCAR-3 ovarian
M14 melanoma = system: M14 melanoma
ACHN renal = system: ACHN renal
SNB-75 CNS = system: SNB-75 CNS
OVCAR-8 ovarian = system: OVCAR-8 ovarian
CAKI-1 renal = system: CAKI-1 renal
SK-OV-3 ovarian = system: SK-OV-3 ovarian
HL-60(TB) leukemia = system: HL-60(TB) leukemia
M19-MEL melanoma = system: M19-MEL melanoma
HOP-92 NSCLC = system: HOP-92 NSCLC
CCRF-CEM leukemia = system: CCRF-CEM leukemia

Measured: TGI

O=C(c1ccccc1)c1ccc2cccc(OC3OC(CO)C(O)C(O)C3O)c2n1 (centres undefined)
82 µM: A498 renal
not listed: SK-OV-3 ovarian | HL-60(TB) leukemia | M19-MEL melanoma | HOP-92 NSCLC | CCRF-CEM leukemia
> 100 µM: all other assays above

Cc1cccc(C)c1NC(=O)C(=O)C(C#N)c1ccccc1 (centres undefined)
not listed: SR leukemia | RPMI-8226 leukemia
> 100 µM: all other assays above
